Data published in ChEMBL document CHEMBL5465560, “Selectivity Literature for EUbOPEN Chemogenomic Library” (2024).

Tests used:
[1] = target: T1, Calcium/calmodulin-dependent protein kinase type IV (Homo sapiens) (UniProt Q16566); assay: Selectivity interaction (Millipore kinase profiler) EUB0000124b CAMK4; conditions: at 10 µM
T1 sequence (whole entry): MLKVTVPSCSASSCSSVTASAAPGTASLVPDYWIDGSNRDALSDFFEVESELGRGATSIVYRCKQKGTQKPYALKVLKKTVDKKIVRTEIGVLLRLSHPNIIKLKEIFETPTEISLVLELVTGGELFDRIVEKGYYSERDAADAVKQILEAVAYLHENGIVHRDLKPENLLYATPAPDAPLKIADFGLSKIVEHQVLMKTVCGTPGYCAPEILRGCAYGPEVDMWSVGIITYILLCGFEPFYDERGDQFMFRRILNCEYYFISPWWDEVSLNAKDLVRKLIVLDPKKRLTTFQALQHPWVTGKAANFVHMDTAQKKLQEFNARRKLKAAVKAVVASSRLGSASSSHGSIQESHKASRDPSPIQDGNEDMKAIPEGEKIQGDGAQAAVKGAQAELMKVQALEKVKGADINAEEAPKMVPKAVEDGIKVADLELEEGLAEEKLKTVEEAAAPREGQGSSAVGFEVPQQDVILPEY

[2] = target: Cyclin-dependent kinase 11B (Homo sapiens) (UniProt P21127); assay: Selectivity interaction (Ambit KINOMEscan and KiNATiv profiling in Jurkat cells) EUB0000090b CDK11B; format: cell-based; conditions: at 1 µM
[3] = target: T2, Dual specificity mitogen-activated protein kinase kinase 7 (Homo sapiens) (UniProt O14733); assay: Selectivity interaction (ActivX KiNativ screen (kinase selectivity in THP-1 cell lysates)) EUB0000639a MAP2K7; format: subcellular; conditions: lysate
T2 sequence (whole entry): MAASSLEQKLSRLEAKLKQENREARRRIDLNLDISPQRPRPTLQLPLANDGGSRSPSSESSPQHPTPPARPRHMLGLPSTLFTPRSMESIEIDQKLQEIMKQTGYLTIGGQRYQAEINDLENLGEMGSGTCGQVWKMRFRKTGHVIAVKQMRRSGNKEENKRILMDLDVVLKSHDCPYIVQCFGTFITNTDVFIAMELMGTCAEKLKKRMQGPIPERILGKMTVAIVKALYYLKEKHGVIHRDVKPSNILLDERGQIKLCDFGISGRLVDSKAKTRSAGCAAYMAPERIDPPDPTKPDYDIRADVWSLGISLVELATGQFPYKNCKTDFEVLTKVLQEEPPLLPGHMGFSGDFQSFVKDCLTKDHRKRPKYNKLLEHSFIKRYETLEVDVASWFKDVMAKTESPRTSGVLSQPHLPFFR

[4] = target: Platelet-derived growth factor receptor alpha (Homo sapiens, UniProt P16234); assay: Selectivity interaction (Kinase panel (Invitrogen)) EUB0000639a PDGFRA; conditions: at 200 nM
[5] = target: Ribosomal protein S6 kinase beta-1 (Homo sapiens, UniProt P23443); assay: Selectivity interaction (ActivX KiNativ screen (kinase selectivity in THP-1 cell lysates)) EUB0000639a RPS6KB1; format: subcellular; conditions: lysate, at 5 µM
[6] = target: Homeodomain-interacting protein kinase 3 (Homo sapiens, UniProt Q9H422); assay: Selectivity interaction (KinomeScan (DiscoverX)) EUB0000695a HIPK3; conditions: at 100 nM
[7] = system: Epidermal growth factor receptor (Homo sapiens), P00533 [UNDEFINED MUTATION]; assay: Selectivity interaction (ProQinase) EUB0000171b EGFR; conditions: at 1 µM
[8] = target: Mitogen-activated protein kinase 8 (Homo sapiens, UniProt P45983); assay: Selectivity interaction (ProQinase) EUB0000171b MAPK8
[9] = target: Myosin light chain kinase 2, skeletal/cardiac muscle (Homo sapiens) (UniProt Q9H1R3); assay: Selectivity interaction (ProQinase) EUB0000171b MYLK2
[10] = target: Protein kinase C eta type (Homo sapiens) (UniProt P24723); assay: Selectivity interaction (Upstate Kinase Profiler service (Millipore)) EUB0000056c PRKCH; conditions: at 1 µM
[11] = target: Ribosomal protein S6 kinase alpha-4 (Homo sapiens) (UniProt O75676); assay: Selectivity interaction (ActivX KiNativ screen (ex vivo kinase selectivity in human PBMCs)) EUB0001619a RPS6KA4; format: cell-based; conditions: PBMC, at 1 µM
[12] = target: Serine/threonine-protein kinase MRCK alpha (Homo sapiens) (UniProt Q5VT25); assay: Selectivity interaction (Kinase panel (DSF assay)) EUB0001559a CDC42BPA
[13] = target: SRSF protein kinase 3 (Homo sapiens) (UniProt Q9UPE1); assay: Selectivity interaction (KinomeScan (DiscoverX)) EUB0000607a SRPK3; conditions: at 10 µM
[14] = target: Phosphatidylinositol 4,5-bisphosphate 3-kinase catalytic subunit alpha isoform (Homo sapiens) (UniProt P42336); conditions: at 10 µM
Chain of Phosphatidylinositol 4,5-bisphosphate 3-kinase catalytic subunit alpha isoform (Homo sapiens) (P42336 whole entry, canonical isoform): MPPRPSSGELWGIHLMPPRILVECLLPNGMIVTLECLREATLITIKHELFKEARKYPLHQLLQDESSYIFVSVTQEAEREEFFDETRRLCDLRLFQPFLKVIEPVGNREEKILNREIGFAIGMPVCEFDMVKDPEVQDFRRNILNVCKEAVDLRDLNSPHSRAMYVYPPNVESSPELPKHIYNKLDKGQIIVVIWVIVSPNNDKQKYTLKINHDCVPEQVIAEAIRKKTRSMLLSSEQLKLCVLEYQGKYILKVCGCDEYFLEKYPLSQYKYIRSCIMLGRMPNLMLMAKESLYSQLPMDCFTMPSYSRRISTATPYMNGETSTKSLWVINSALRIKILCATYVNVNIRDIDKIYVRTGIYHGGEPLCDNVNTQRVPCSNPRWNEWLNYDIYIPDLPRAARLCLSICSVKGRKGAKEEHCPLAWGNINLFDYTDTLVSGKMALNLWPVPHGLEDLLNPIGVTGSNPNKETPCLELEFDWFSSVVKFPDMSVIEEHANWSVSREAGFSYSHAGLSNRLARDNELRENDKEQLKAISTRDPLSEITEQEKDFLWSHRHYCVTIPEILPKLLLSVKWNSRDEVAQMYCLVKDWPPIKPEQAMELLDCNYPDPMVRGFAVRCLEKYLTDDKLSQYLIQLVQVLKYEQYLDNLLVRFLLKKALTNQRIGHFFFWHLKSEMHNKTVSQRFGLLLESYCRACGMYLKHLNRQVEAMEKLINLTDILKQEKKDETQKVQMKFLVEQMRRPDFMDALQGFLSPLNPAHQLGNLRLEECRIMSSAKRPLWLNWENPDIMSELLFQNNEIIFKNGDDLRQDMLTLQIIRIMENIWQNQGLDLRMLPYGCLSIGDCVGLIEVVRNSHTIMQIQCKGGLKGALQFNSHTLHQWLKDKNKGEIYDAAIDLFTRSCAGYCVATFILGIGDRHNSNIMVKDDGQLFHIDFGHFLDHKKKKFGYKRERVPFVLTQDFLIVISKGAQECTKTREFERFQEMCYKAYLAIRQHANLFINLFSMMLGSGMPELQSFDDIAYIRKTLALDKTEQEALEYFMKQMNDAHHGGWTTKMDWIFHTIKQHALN

Chain of Myosin light chain kinase 2, skeletal/cardiac muscle (Homo sapiens) (Q9H1R3 whole entry): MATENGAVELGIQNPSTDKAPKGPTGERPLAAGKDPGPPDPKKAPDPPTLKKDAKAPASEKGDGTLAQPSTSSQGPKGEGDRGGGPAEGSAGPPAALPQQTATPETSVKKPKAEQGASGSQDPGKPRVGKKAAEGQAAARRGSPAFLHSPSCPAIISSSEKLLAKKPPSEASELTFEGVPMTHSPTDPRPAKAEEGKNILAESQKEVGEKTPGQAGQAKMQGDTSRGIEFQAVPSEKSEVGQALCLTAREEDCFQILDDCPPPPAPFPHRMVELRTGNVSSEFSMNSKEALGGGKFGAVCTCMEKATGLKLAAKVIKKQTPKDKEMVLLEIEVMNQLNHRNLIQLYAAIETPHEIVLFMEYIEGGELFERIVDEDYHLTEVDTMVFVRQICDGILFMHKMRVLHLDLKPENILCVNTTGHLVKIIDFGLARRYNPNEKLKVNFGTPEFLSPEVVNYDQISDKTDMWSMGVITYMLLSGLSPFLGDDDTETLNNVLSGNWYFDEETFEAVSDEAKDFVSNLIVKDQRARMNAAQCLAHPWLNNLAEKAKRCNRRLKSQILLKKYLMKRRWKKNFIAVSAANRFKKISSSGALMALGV
Chain of Mitogen-activated protein kinase 8 (P45983 whole entry): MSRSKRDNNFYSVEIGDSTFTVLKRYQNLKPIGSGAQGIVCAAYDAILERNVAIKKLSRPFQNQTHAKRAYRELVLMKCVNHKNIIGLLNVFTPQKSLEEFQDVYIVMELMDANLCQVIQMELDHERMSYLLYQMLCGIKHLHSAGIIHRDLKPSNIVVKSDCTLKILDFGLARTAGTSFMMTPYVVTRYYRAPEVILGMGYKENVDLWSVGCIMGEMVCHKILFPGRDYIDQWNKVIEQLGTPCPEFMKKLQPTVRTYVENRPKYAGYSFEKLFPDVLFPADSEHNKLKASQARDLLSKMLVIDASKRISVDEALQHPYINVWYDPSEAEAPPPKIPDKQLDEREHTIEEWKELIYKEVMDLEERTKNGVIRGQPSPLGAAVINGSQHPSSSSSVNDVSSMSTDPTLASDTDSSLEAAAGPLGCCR
Chain of Protein kinase C eta type (Homo sapiens) (P24723 whole entry): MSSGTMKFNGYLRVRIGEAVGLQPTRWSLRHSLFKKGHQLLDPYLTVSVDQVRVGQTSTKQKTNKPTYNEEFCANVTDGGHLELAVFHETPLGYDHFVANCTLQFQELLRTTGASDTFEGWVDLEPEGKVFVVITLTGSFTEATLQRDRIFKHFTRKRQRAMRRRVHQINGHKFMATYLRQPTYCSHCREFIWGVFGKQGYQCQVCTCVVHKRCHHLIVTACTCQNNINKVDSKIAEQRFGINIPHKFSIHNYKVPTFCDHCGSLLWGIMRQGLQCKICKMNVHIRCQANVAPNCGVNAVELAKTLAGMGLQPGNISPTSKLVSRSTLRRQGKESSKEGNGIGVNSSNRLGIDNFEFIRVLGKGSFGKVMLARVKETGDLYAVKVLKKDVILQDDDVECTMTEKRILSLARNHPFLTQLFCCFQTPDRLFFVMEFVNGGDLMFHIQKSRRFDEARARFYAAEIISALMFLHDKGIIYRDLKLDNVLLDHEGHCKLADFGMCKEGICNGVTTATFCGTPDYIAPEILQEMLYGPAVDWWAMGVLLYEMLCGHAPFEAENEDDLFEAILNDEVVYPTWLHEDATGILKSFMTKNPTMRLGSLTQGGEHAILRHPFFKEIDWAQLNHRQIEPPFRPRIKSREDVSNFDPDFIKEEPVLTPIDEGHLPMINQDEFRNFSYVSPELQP
Chain of SRSF protein kinase 3 (Homo sapiens) (Q9UPE1 whole entry, canonical isoform): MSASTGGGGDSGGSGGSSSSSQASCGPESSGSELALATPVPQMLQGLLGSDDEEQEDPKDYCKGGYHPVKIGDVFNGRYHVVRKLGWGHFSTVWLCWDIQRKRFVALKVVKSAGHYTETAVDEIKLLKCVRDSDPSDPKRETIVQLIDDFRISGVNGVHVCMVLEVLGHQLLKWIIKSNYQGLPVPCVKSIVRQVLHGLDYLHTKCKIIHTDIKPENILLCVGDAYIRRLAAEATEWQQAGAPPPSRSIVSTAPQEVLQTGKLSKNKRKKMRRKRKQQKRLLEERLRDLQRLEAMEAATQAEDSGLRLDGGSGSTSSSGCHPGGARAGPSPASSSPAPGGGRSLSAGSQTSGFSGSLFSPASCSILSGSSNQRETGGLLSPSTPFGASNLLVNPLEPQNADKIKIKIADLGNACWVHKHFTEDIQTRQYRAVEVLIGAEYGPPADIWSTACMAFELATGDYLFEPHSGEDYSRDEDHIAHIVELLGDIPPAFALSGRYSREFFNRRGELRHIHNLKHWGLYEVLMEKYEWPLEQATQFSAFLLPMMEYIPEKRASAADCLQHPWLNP
Chain of Platelet-derived growth factor receptor alpha (P16234 whole entry): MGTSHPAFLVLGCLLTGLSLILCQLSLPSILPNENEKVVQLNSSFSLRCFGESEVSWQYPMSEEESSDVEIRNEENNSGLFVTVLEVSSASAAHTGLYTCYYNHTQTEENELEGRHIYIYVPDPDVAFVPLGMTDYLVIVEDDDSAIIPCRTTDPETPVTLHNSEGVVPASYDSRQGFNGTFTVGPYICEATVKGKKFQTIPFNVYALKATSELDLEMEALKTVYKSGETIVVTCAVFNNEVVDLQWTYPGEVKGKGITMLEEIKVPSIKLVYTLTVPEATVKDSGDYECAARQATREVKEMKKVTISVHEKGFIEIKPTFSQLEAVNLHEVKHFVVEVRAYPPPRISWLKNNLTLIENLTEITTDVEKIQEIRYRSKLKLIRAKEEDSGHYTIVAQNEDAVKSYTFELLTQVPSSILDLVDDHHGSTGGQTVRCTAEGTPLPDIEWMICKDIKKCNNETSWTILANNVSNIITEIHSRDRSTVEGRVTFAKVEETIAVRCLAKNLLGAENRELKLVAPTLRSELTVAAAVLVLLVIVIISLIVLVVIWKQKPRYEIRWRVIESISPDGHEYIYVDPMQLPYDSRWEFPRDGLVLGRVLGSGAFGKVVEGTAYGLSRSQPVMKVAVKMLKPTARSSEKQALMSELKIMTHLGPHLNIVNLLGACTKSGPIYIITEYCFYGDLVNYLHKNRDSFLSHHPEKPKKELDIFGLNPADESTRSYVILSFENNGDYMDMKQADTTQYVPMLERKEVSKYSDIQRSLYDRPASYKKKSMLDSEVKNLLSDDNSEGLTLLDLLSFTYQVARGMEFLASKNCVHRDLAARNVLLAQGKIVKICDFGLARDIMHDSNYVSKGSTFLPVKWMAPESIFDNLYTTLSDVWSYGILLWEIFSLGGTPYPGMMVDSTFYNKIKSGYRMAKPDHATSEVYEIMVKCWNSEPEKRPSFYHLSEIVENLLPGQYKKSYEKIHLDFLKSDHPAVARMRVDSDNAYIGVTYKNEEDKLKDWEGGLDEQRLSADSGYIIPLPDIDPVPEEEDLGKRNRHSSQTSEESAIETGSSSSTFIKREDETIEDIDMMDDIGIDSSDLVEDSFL
Chain of Ribosomal protein S6 kinase beta-1 (P23443 whole entry, looked up): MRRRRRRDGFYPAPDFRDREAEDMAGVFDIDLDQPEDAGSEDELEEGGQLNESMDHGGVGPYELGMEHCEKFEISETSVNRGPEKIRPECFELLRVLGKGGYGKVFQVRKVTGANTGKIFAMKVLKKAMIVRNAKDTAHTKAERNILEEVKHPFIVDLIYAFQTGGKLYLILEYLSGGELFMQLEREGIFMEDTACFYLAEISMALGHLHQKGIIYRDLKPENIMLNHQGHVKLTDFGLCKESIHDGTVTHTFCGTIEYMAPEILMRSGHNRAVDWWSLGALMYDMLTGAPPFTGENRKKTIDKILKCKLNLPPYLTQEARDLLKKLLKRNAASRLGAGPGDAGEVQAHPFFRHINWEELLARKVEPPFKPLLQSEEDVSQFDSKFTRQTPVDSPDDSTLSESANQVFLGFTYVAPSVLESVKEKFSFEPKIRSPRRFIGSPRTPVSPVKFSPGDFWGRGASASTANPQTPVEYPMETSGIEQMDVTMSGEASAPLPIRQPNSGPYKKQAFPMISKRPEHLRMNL

Compound `CC(=O)Nc1cccc(-n2c(=O)n(C3CC3)c(=O)c3c(Nc4ccc(I)cc4F)n(C)c(=O)c(C)c32)c1` has a % of control [1] of 97%.
`CN(C)C/C=C/C(=O)Nc1ccc(C(=O)N2CCCC(Nc3ncc(Cl)c(-c4c[nH]c5ccccc45)n3)C2)cc1` (stereo not given) showed a % of control [2] of 100%.
`CC[C@@H]1[C@H](F)C(=O)N[C@@H]1COc1nccc2cc(C(N)=O)c(OC)cc12` [ZIMLOVISERTIB] showed a % of inhibition ([3]; at 0.01 µM) of 7.8%, a % of inhibition ([3]; at 0.04 µM) of 0.6% and a % of inhibition ([3]; at 0.2 µM) of 2.5%. For the same compound, the % of inhibition ([3]; at 1 µM) was 2.2%, the % of inhibition ([3]; at 5 µM) was -7.1% and the % of inhibition [4] was 1.87%. For the same compound, the % of inhibition [5] was 3.9%.
`Cc1cc(F)c(C(=O)Nc2cccc(-c3nncn3C(C)C)n2)cc1-n1cnc(C2CC2)c1` showed a % of control [6] of 100%.
Work on `C=CC(=O)Nc1cccc(C(=O)Nc2ccc(Nc3cc(-c4[nH]c(SC)nc4C)ccn3)cc2)c1` yielded a % of control [7] of 88%, a % of control ([8]; at 1 µM) of 5% and a % of control ([8]; at 5 µM) of 1%. The % of control ([9]; at 1 µM) was 83% and the % of control ([9]; at 5 µM) was 59%.
With `Cc1ccc(-c2ccc3c(ccc4sc5c(c43)NC[C@@H](C)NC5=O)n2)cn1` the % of inhibition [10] was 6%.
In the case of `N#Cc1cccc(-c2c[nH]c3ncnc(N4CCOCC4)c23)c1`, the % of inhibition [11] is reported as 20%.
For `CN(C(=O)c1cnn2cccnc12)c1cc2c(cc1N1CCOCC1)C(=O)N(C[C@@H](F)C(C)(C)O)C2`, the dTM [12] was 0 K.
For `CNC(=O)Nc1ccc(-c2nc(N3CC4CCC(C3)O4)c3cnn(C4CCC5(CC4)OCCO5)c3n2)cc1`, the % of control [13] was 100% and the % of control [14] was 16%.
